Assay [1] concerns the target CB2-WT (Homo sapiens, UniProt P34972). As to the kind of experiment: [3H]CP55940 binding to CB2-WT in buffer supplemented with NaCl. The settings on record: NaCl up to 1000 mM; CB2-WT transiently expressed on CHO cell membrane.
The target of assay [2] is CB1. The settings on record: read-out: Ki to the CB1 receptor; cited from earlier work.
The target of assay [3] is δ-opioid receptor. The settings on record: cited from earlier work.
Assay [4] addresses wild-type CB2 (WT) (Homo sapiens, UniProt P34972). As to the kind of experiment: Competition binding assay, displacement of [3H]-CP-55940, membranes of CHO cells. Background: Displacement assays read how much labelled ligand stays bound in the presence of the test substance.
Assay [5] has as its system A2AAR. The settings on record: sodium 150 mM; cited from earlier work.

Like-named read-outs stand apart in the source and are kept apart here.

Sequence of wild-type CB2 (WT) (P34972 whole entry): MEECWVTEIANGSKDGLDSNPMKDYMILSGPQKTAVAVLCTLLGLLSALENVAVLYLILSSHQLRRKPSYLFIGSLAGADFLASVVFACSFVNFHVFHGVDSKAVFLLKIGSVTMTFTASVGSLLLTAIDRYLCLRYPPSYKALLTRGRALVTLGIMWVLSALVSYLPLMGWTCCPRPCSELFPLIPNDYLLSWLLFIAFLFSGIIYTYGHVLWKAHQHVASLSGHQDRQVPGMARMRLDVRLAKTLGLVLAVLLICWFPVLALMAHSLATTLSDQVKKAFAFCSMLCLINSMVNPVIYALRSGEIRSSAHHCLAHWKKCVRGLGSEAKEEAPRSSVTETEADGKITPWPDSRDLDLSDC
Sequence of CB2-WT (P34972 whole entry): as above

Regarding `[Cl-].[Na+]` [Na^+, NaCl], the “effect on the binding of the CB2 agonist [3H]CP55940” value in assay [1] was “did not have any effect”. For the compound `Cc1ccc(Cn2nc(C(=O)N[C@@H]3C(C)(C)[C@@H]4CC[C@@]3(C)C4)cc2-c2ccc(Cl)c(C)c2)cc1` [SR144528, 5-(4-chloro-3-methylphenyl)-1-[(4-methylphenyl)methyl]-N-[(1S,2S,4R)-1,3,3-trimethylbicyclo[2.2.1]hept-2-yl]-1H-pyrazole-3-carboxamide], in assay [2], the inhibitory constant (Ki) (in general, the dissociation constant of the complex between target and ligand, obtained from inhibition or displacement) is 400 nM. Take “[D-Ala^2, D-Leu^5]-Enkephalin [[^3H]DADLE]”: the Ki in assay [3] (read-out: Ki value with 0 mM NaCl, 0 mM NaCl) was 280 nM; in assay [3] (read-out: Ki value with 140 mM NaCl, 140 mM NaCl), 2800 nM. For the compound `N=C(N)NC(=O)c1nc(Cl)c(N)nc1N` [amiloride], the inhibition constant Ki in assay [4] (Ki value at CB2, competition binding, no added NaCl) was found to be 495000 nM; in assay [4] (Ki value at CB2 with 150 mM NaCl, with 150 mM NaCl) it was 310000 nM. With `CCNC(=O)[C@H]1O[C@@H](n2cnc3c(N)ncnc32)[C@H](O)[C@@H]1O` [[^3H]NECA, 5′-N-ethylcarboxamidoadenosine], the “binding detected in presence of sodium” value in assay [5] is given as 25%.

The values are drawn from PMC4170816 (Journal of Chemical Information and Modeling, 2014).
